Laboratory results from publication PMC11357990, “A first-in-class selective inhibitor of EGFR and PI3K offers a single-molecule approach to targeting adaptive resistance” (Nature Cancer, 2024).

How the values were obtained:
EGFR = EGFR (Homo sapiens, UniProt P00533); assay: biochemical; design: Km ATP; Purified kinase inhibition, Z'-LYTE (HER, mTOR, DNA-PK) or Adapta (PI3K), ATP at Km apparent
Protocol: (§1) IC50 values were determined at a concentration of ATP corresponding to the Km apparent for that kinase.

HER4 = target: T1, HER4 (Homo sapiens, UniProt Q15303); assay: biochemical; design: Purified kinase inhibition, Z'-LYTE (HER, mTOR, DNA-PK) or Adapta (PI3K), ATP at Km apparent
T1 construct: gene ERBB4; Km ATP
T1 sequence (Q15303 whole entry): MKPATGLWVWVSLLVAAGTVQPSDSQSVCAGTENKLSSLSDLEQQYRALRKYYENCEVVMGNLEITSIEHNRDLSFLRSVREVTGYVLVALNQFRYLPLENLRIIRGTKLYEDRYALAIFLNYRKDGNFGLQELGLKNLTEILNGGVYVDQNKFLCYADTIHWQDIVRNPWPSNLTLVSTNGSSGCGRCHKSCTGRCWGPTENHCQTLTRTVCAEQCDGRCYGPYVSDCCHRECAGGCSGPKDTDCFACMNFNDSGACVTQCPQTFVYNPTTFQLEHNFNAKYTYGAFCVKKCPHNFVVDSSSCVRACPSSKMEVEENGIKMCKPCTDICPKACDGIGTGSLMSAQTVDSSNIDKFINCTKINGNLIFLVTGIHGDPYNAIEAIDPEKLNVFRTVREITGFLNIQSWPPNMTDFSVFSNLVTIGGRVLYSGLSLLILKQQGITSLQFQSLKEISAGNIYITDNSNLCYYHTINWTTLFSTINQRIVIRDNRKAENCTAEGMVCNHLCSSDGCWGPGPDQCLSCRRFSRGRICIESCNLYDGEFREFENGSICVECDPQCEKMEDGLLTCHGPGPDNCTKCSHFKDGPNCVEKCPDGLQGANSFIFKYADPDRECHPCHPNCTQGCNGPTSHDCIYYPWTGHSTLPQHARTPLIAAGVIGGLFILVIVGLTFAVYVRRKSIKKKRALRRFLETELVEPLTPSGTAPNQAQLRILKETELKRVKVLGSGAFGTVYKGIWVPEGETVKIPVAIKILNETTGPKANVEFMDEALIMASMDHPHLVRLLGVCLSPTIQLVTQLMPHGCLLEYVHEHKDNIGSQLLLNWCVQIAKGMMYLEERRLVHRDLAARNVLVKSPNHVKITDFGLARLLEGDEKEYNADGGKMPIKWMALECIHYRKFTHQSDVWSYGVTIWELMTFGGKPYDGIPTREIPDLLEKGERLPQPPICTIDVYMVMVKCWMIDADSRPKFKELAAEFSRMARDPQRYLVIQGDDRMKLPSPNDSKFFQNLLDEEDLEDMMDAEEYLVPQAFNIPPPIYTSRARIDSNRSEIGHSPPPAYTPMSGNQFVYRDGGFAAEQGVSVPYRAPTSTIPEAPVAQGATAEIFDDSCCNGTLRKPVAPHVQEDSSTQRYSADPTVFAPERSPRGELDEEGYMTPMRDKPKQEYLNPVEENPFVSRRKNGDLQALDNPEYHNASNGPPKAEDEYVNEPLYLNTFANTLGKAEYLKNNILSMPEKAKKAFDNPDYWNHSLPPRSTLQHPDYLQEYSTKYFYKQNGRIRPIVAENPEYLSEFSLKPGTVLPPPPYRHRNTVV
Protocol: as §1

HER2 = target: T2, HER2 (Homo sapiens, UniProt P04626); assay: biochemical; design: Purified kinase inhibition, Z'-LYTE (HER, mTOR, DNA-PK) or Adapta (PI3K), ATP at Km apparent
T2 construct: gene ERBB2; Km ATP
T2 sequence (P04626 whole entry): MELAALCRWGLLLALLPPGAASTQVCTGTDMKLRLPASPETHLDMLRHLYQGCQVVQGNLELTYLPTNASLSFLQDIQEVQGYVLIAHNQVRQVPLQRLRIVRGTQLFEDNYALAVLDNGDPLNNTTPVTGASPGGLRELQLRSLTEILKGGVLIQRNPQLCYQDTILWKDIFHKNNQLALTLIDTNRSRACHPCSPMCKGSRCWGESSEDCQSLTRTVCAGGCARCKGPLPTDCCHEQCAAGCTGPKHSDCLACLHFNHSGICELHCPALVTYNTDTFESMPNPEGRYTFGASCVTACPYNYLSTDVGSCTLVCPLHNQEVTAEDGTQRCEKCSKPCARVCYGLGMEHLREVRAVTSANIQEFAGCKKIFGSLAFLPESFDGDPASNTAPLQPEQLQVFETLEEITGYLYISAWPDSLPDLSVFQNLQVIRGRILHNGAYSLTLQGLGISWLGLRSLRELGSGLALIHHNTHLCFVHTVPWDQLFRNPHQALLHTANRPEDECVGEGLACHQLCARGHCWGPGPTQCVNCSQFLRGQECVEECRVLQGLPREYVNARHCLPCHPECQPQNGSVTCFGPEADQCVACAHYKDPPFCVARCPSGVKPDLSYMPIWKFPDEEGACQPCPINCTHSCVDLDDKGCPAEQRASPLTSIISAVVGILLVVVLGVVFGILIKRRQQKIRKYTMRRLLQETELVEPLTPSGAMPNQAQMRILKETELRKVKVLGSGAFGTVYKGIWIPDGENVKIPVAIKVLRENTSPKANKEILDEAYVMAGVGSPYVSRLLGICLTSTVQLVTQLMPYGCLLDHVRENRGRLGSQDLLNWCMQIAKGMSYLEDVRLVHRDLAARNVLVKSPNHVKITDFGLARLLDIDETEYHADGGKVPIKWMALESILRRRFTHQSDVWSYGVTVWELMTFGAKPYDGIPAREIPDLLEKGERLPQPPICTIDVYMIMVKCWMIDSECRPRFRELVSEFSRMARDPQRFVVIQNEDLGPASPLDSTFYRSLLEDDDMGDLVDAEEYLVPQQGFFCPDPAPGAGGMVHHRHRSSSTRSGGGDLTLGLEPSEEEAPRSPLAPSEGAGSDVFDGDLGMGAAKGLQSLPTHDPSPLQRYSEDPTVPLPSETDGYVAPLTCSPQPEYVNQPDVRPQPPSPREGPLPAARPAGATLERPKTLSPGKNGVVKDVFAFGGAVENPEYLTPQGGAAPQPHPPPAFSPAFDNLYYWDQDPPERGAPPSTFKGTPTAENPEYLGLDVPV
Protocol: as §1

PI3Kγ [1] = target: T3, PI3Kγ (Homo sapiens, UniProt P48736); assay: biochemical kinase assay at ATP Km apparent; design: gene PIK3CG
T3 sequence (P48736 whole entry): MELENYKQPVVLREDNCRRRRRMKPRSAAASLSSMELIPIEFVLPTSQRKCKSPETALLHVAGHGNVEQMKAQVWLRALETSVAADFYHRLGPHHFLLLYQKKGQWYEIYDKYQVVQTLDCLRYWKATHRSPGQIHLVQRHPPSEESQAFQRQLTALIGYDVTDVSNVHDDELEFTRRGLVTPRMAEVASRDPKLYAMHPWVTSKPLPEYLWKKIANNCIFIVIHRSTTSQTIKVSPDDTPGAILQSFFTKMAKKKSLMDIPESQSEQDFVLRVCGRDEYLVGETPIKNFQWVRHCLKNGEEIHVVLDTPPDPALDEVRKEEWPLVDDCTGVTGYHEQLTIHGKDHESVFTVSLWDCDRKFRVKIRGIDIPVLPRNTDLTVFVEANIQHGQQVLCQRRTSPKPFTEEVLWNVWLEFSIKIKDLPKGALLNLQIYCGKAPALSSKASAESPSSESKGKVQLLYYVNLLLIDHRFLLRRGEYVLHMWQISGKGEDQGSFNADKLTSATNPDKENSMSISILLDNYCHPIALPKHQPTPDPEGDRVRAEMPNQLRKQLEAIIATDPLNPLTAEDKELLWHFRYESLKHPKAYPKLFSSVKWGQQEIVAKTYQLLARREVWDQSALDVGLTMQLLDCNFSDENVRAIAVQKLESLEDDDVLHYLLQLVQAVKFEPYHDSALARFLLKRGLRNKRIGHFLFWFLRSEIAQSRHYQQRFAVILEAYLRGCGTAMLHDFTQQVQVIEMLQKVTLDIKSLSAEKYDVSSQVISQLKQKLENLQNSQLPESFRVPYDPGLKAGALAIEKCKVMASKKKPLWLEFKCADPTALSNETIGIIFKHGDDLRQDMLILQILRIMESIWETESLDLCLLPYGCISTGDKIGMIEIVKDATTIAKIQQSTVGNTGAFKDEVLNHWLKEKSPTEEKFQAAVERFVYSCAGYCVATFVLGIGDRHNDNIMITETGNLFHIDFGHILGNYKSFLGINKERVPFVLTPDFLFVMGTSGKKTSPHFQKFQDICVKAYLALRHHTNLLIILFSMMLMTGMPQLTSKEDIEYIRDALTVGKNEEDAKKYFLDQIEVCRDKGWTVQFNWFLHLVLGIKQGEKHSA

mTOR = target: T4, mTOR (Homo sapiens, UniProt P42345); assay: biochemical; design: Purified kinase inhibition, Z'-LYTE (HER, mTOR, DNA-PK) or Adapta (PI3K), ATP at Km apparent
T4 construct: Km ATP
Protocol: as §1

PI3Kγ [2] = target: T3, PI3Kγ; assay: biochemical; design: gene PIK3CG; Km ATP; Purified kinase inhibition, Z'-LYTE (HER, mTOR, DNA-PK) or Adapta (PI3K), ATP at Km apparent
Protocol: as §1

PI3Kβ = target: T5, PI3Kβ (Homo sapiens, UniProt P42338); assay: biochemical; design: Purified kinase inhibition, Z'-LYTE (HER, mTOR, DNA-PK) or Adapta (PI3K), ATP at Km apparent
T5 construct: gene PIK3CB; Km ATP
Protocol: as §1

PI3Kδ = target: T6, PI3Kδ (Homo sapiens, UniProt O00329); assay: biochemical; design: Purified kinase inhibition, Z'-LYTE (HER, mTOR, DNA-PK) or Adapta (PI3K), ATP at Km apparent
T6 construct: gene PIK3CD; Km ATP
Protocol: as §1

PI3Kα = PI3Kα (Homo sapiens, UniProt P42336); assay: biochemical; design: gene PIK3CA; Km ATP; Purified kinase inhibition, Z'-LYTE (HER, mTOR, DNA-PK) or Adapta (PI3K), ATP at Km apparent
Protocol: as §1

Sequence of EGFR (P00533 whole entry): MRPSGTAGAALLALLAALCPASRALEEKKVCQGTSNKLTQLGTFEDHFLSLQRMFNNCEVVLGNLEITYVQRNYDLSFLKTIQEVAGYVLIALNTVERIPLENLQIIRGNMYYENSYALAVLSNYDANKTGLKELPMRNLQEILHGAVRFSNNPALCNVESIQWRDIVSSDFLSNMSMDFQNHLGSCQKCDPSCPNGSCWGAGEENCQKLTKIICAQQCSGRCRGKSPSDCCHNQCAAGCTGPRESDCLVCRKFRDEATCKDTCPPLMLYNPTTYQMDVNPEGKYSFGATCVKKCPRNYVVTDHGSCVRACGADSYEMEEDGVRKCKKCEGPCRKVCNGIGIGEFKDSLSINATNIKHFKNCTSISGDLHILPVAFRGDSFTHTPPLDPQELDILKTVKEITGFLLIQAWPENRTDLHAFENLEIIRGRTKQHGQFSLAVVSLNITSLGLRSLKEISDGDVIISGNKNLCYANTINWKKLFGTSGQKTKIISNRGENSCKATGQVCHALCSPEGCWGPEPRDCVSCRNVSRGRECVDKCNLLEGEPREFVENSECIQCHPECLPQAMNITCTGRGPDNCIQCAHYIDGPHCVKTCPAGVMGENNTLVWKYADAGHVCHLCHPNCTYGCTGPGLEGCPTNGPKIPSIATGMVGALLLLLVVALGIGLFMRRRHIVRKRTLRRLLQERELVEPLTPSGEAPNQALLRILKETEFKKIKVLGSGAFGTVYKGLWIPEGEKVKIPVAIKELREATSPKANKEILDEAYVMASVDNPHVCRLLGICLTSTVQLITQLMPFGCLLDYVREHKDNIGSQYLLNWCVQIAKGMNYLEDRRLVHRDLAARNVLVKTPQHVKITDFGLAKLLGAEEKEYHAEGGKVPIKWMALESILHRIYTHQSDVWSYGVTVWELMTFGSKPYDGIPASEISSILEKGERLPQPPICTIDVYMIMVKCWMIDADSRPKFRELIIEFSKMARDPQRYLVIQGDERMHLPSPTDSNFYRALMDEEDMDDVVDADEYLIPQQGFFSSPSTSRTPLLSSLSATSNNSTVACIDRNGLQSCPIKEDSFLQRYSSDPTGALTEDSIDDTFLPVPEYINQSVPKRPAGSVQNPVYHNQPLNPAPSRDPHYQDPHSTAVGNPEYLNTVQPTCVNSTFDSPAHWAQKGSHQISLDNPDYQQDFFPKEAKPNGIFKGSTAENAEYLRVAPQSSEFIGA

| IC50 (EGFR) [µM] | IC50 (HER4) [µM] | IC50 (HER2) [µM] | IC50 (PI3Kγ [1]) [µM] | IC50 (mTOR) [µM] | IC50 (PI3Kγ [2]) [µM] | IC50 (PI3Kβ) [µM] | IC50 (PI3Kδ) [µM] | IC50 (PI3Kα) [µM] | Compound |
| --- | --- | --- | --- | --- | --- | --- | --- | --- | --- |
| > 10 | > 10 | > 10 | 0.00062 |  |  |  |  |  | COc1ncc(-c2ccc3nccc(-c4ccnnc4)c3c2)cc1NS(=O)(=O)c1ccc(F)cc1F [Omipalisib] |
| > 10 | > 10 | > 10 |  | 0.0188 |  |  |  |  | COc1c(OCCCN2CCOCC2)ccc2c1N=C(NC(=O)c1cnc(N)nc1)N1CCN=C21 [Copanlisib] |
|  | 0.221 | 0.0261 |  | > 10 | > 10 | > 10 | > 10 | > 10 | CCN1CCN(Cc2ccc(-c3cc4c(N[C@H](C)c5ccccc5)ncnc4[nH]3)cc2)CC1 [NVP-AEE788] |
| > 10 | > 10 | > 10 |  | 2.94 |  |  |  |  | Cc1nc(NC(=O)N2CCC[C@H]2C(N)=O)sc1-c1ccnc(C(C)(C)C(F)(F)F)c1 [Alpelisib] |
